Source: patent US20080103164A1, “USEFUL COMPOUNDS FOR HPV INFECTION” (priority 2004, published 2008)

Test system: episomal HPV-16 DNA in W12-20850 cells
Experiment: W-12 cellular assay: episomal HPV-16 DNA quantified by hybrid capture in W12-20850 cells
Type: cell-based, HPV16
Conditions: Human papillomavirus 16, 96 h, four days incubation, inhibition of episomal HPV-16 DNA relative to untreated control
Description: Compounds of the current invention are believed useful in the treatment and/or prophylaxis of conditions and diseases associated with HPV infection. Activity mediated through HPV was determined using the following W-12 cellular assay. The […] cell line used contains HPV16 DNA and was derived from a low-grade cervical dysplasia tissue by Margaret Stanley and subsequently clonally selected by Paul Lambert (University of Wisconsin). One of these clones, […]-20850, contains 1000 copies of episomal HPV16 DNA and was used in the cell-based assay. […]-20850 cells were routinely cultured with a gamma-irradiated (6000 rads) feeder layer of 3T3 cells. Assays, however, were run in the absence of a 3T3 feeder layer. […]-20850 and 3T3 cells were routinely split when they were sub-confluent. […]-20850 were grown in […] Medium which is constituted of 25% DMEM (Gibco BRL, Cat # 12430-047), 75% F12 Media (Gibco BRL, Cat # 11765-021) and 2.5% FBS. The additives include […] Adenine (Sigma, Cat # A-9795), […] Hydrocortisone (Calbiochem, Cat # 386698), […] Bovine Insulin (Sigma, Cat # 1-1882), 8.4 ng/ml cholera toxin (Fluka, Cat # 26694) and 10 ng/ml EGF (Invitrogen, Cat # 13247-051). 3T3 cells were grown in DMEM containing 10% FBS. Cell lines were incubated at 37° C., in the presence of 5% CO2. For the assay, […]-20850 cells were seeded into a 96 well plate-containing compound. Plates were incubated at 37° C. in the presence of 5% CO2, for four days. On the fourth day, cells were lysed and the amount of episomal HPV-16 DNA was quantified using a non-radioactive hybrid capture technique with HPV-16 specific capture and detection probes. The percent inhibition relative to untreated control cells was then determined. The hybrid capture assay is run in a 96 well plate format. Hybridization plates (Nunc Maxisorb Cat # 450320) were coated with a mixture of capture probe and ReactiBind solution for at least 4 hours and then washed with 0.2×SSC, 0.05% Tween-20 (SSCT) prior to blocking with 150 μl/well of 0.2 N NaOH, 1% Igepal, 10 mg/ml hsDNA for 6-8 hours. The hybridization was carried out by mixing 27 μl of lysed cells with 45 μl of denatured detection probe in 6M guanidine isothiocyanate. To prevent evaporation, 50 μl of mineral oil was added to each well. The plate was then heated to 90° C. for 6.5 minutes and the hybridization continued at 42° C. overnight. Assay plates were washed 6 times with SSC/T. Anti-digoxigenin HRP-conjugated Ab (Boehringer Mannheim 1207733, 1:5000) was incubated in the wells for 30 min at room temperature and washed with PBS/0.05% Tween-20. SuperSignal LBA substrate (Pierce Cat # 37070) was added, and chemiluminescence was measured using Wallac 1420 Victor plate reader.

Structure (SMILES) | IC50 [nM]
COC(=O)N1CCc2c([nH]c3ccc(Cl)cc23)C1c1ccc(C)cc1 (stereo not drawn) [Example 2, Methyl 6-chloro-1-(4-methylphenyl)-1,3,4,9-tetrahydro-2H-β-carboline-2-carboxylate] | 68
Cc1ccc(C2c3[nH]c4ccc(Cl)cc4c3CCN2C(=O)CCc2ccccc2)cc1 (stereo not drawn) [Example 3, 6-Chloro-1-(4-methylphenyl)-2-(3-phenylpropanoyl)-2,3,4,9-tetrahydro-1H-β-carboline] | 60
Cc1ccc(C2c3[nH]c4ccc(Cl)cc4c3CCN2C(=O)OCc2ccccc2)cc1 (stereo not drawn) [Example 4, Phenylmethyl 6-chloro-1-(4-methylphenyl)-1,3,4,9-tetrahydro-2H-β-carboline-2-carboxylate] | 22
COC(=O)N1CCc2c([nH]c3ccc(F)cc23)C1c1ccc(C)cc1 (stereo not drawn) [Example 6, Methyl 6-fluoro-1-(4-methylphenyl)-1,3,4,9-tetrahydro-2H-β-carboline-2-carboxylate] | 365
Cc1ccc(C2c3[nH]c4ccc(F)cc4c3CCN2C(=O)CCc2ccccc2)cc1 (stereo not drawn) [Example 7, 6-Fluoro-1-(4-methylphenyl)-2-(3-phenylpropanoyl)-2,3,4,9-tetrahydro-1H-β-carboline] | 216
Cc1ccc(C2c3[nH]c4ccc(F)cc4c3CCN2C(=O)OCc2ccccc2)cc1 (stereo not drawn) [Example 8, Phenylmethyl 6-fluoro-1-(4-methylphenyl)-1,3,4,9-tetrahydro-2H-β-carboline-2-carboxylate] | 446
COC(=O)N1CCc2c([nH]c3ccc(Br)cc23)C1c1ccc(C)cc1 (stereo not drawn) [Example 10, Methyl 6-bromo-1-(4-methylphenyl)-1,3,4,9-tetrahydro-2H-β-carboline-2-carboxylate] | 11
Cc1ccc(C2c3[nH]c4ccc(Br)cc4c3CCN2C(=O)CCc2ccccc2)cc1 (stereo not drawn) [Example 11, 6-Bromo-1-(4-methylphenyl)-2-(3-phenylpropanoyl)-2,3,4,9-tetrahydro-1H-β-carboline] | 20
Cc1ccc(C2c3[nH]c4ccc(Br)cc4c3CCN2C(=O)OCc2ccccc2)cc1 (stereo not drawn) [Example 12, Phenylmethyl 6-bromo-1-(4-methylphenyl)-1,3,4,9-tetrahydro-2H-β-carboline-2-carboxylate] | 14
Cc1ccc([C@@H]2c3[nH]c4ccc(Cl)cc4c3CCN2C(=O)CCc2ccccc2)cc1 [Example 13, (1R)-6-Chloro-1-(4-methylphenyl)-2-(3-phenylpropanoyl)-2,3,4,9-tetrahydro-1H-β-carboline] | 8000
Cc1ccc([C@H]2c3[nH]c4ccc(Cl)cc4c3CCN2C(=O)CCc2ccccc2)cc1 [Example 14, (1S)-6-Chloro-1-(4-methylphenyl)-2-(3-phenylpropanoyl)-2,3,4,9-tetrahydro-1H-β-carboline] | 15
Cc1ccc(C2c3[nH]c4ccccc4c3CCN2S(=O)(=O)Cc2ccccc2)cc1 (stereo not drawn) [Example 15, 1-(4-Methylphenyl)-2-[(phenylmethyl)sulfonyl]-2,3,4,9-tetrahydro-1H-β-carboline] | 7000
Cc1ccc(C2c3[nH]c4ccccc4c3CCN2S(C)(=O)=O)cc1 (stereo not drawn) [Example 16, 1-(4-Methylphenyl)-2-(methylsulfonyl)-2,3,4,9-tetrahydro-1H-β-carboline] | 24000
Cc1ccc(C2c3[nH]c4ccccc4c3CCN2S(=O)(=O)c2ccc(N)cc2)cc1 (centres unmarked) [Example 17, (4-{[1-(4-Methylphenyl)-1,3,4,9-tetrahydro-2H-b-carbolin-2-yl]sulfonyl}phenyl)amine] | 10000
CC(=O)N1CCc2c([nH]c3ccccc23)C1c1ccc(C)cc1 (stereo not drawn) [Example 18, 2-Acetyl-1-(4-methylphenyl)-2,3,4,9-tetrahydro-1H-β-carboline] | 5000
Cc1ccc(C2c3[nH]c4ccccc4c3CCN2C(=O)CCc2ccccc2)cc1 (stereo not drawn) [Example 19, 1-(4-Methylphenyl)-2-(3-phenylpropanoyl)-2,3,4,9-tetrahydro-1H-β-carboline] | 1000

Structure (SMILES) | IC50 [nM]
Cc1ccc(C2c3[nH]c4ccccc4c3CCN2C(=O)C#Cc2ccccc2)cc1 (centres unmarked) [Example 20, 1-(4-Methylphenyl)-2-(3-phenyl-2-propynoyl)-2,3,4,9-tetrahydro-1H-b-carboline] | 26000
Cc1ccc(C2c3[nH]c4ccccc4c3CCN2C(=O)CCc2cccnc2)cc1 (stereo not drawn) [Example 21, 1-(4-Methylphenyl)-2-[3-(3-pyridinyl)propanoyl]-2,3,4,9-tetrahydro-1H-β-carboline] | 18000
Cc1ccc(C2c3[nH]c4ccccc4c3CCN2C(=O)CNC(=O)OCc2ccccc2)cc1 (centres unmarked) [Example 22, Phenylmethyl {2-[1-(4-methylphenyl)-1,3,4,9-tetrahydro-2H-b-carbolin-2-yl]-2-oxoethyl}carbamate] | 4000
COc1ccc2[nH]c3c(c2c1)CCN(C(=O)CCc1ccccc1)C3c1ccc(C)cc1 (stereo not drawn) [Example 23, 6-(Methyloxy)-1-(4-methylphenyl)-2-(3-phenylpropanoyl)-2,3,4,9-tetrahydro-1H-β-carboline] | 600
Cc1ccc(C2c3[nH]c4c(C)cccc4c3CCN2C(=O)CCc2ccccc2)cc1 (stereo not drawn) [Example 24, 8-Methyl-1-(4-methylphenyl)-2-(3-phenylpropanoyl)-2,3,4,9-tetrahydro-1H-β-carboline] | 2000
Cc1ccc(C2c3[nH]c4ccc(C)cc4c3CCN2C(=O)CCc2ccccc2)cc1 (stereo not drawn) [Example 25, 6-Methyl-1-(4-methylphenyl)-2-(3-phenylpropanoyl)-2,3,4,9-tetrahydro-1H-β-carboline] | 400
Cc1ccc(C2c3[nH]c4cc(F)ccc4c3CCN2C(=O)CCc2ccccc2)cc1 (stereo not drawn) [Example 26, 7-Fluoro-1-(4-methylphenyl)-2-(3-phenylpropanoyl)-2,3,4,9-tetrahydro-1H-β-carboline] | 2000
COc1ccc2c3c([nH]c2c1)C(c1ccc(C)cc1)N(C(=O)CCc1ccccc1)CC3 (stereo not drawn) [Example 27, 7-(Methyloxy)-1-(4-methylphenyl)-2-(3-phenylpropanoyl)-2,3,4,9-tetrahydro-1H-β-carboline] | 6000
O=C(/C=C/c1ccccc1)N1CCc2c([nH]c3ccccc23)[C@H]1c1ccc2c(c1)CCO2 [Example 30, (1R)-1-(2,3-dihydro-1-benzofuran-5-yl)-2-[(2E)-3-phenyl-2-propenoyl]-2,3,4,9-tetrahydro-1H-β-carboline] | > 20000
O=C(/C=C/c1ccccc1)N1CCc2c([nH]c3ccccc23)[C@@H]1c1ccc2c(c1)CCO2 [Example 31, (1S)-1-(2,3-dihydro-1-benzofuran-5-yl)-2-[(2E)-3-Phenyl-2-propenoyl]-2,3,4,9-tetrahydro-1H-β-carboline] | 2000
COc1ccc(-c2ccnc(N3CCc4c([nH]c5ccccc45)C3c3ccc4c(c3)OCO4)n2)cc1 (stereo not drawn) [Example 32, 1-(1,3-benzodioxol-5-yl)-2-{4-[4-(methyloxy)phenyl]-2-pyrimidinyl}-2,3,4,9-tetrahydro-1H-β-carboline] | 2000
c1cnc(N2CCc3c([nH]c4ccccc34)C2c2ccc3c(c2)OCO3)nc1 (stereo not drawn) [Example 33, 1-(1,3-benzodioxol-5-yl)-2-(2-pyrimidinyl)-2,3,4,9-tetrahydro-1H-β-carboline] | 5000
c1ccc(-c2ccnc(N3CCc4c([nH]c5ccccc45)C3c3ccc4c(c3)OCO4)n2)cc1 (stereo not drawn) [Example 34, 1-(1,3-benzodioxol-5-yl)-2-(4-phenyl-2-pyrimidinyl)-2,3,4,9-tetrahydro-1H-β-carboline] | 2000
c1ccc(-c2ccnc(N3CCc4c([nH]c5ccccc45)C3c3ccccc3)n2)cc1 (stereo not drawn) [Example 35, 1-phenyl-2-(4-phenyl-2-pyrimidinyl)-2,3,4,9-tetrahydro-1H-β-carboline] | 2000
c1ccc(-c2ccnc(N3CCc4c([nH]c5ccccc45)C3c3ccc4c(c3)CCO4)n2)cc1 (stereo not drawn) [Example 36, 1-(2,3-dihydro-1-benzofuran-5-yl)-2-(4-phenyl-2-pyrimidinyl)-2,3,4,9-tetrahydro-1H-β-carboline] | 3000

Same assay, conditions: four days incubation, inhibition of episomal HPV-16 DNA relative to untreated control

Structure (SMILES) | IC50 [nM]
O=C(/C=C/c1ccccc1)N1CCc2c([nH]c3ccccc23)C1c1ccc2c(c1)CCO2 (stereo not drawn) [Example 29, (1R/1S)-1-(2,3-dihydro-1-benzofuran-5-yl)-2-[(2E)-3-phenyl-2-propenoyl]-2,3,4,9-tetrahydro-1H-β-carboline] | 3000
